Test results from patent US20070049564A1 (Wyeth, priority 2005, published 2007).
In brackets after ≈: the same amount, converted by molar mass. Where two headings read alike, the source gives them in different places.

How the values were obtained:
E. coli GC 2231 = experiment: MIC, broth microdilution; conditions: Escherichia coli
E. coli GC 2235 = experiment: MIC, broth microdilution; conditions: Escherichia coli
Experimental: (§1) Antimicrobial susceptibility testing. The in vitro activities of the antibiotics are determined by the broth microdilution method as recommended by the National Committee for Clinical Laboratory Standards (NCCLS) (1). Mueller-Hinton II broth (MHBII)(BBL Cockeysville, Md.) is the medium employed in the testing procedures. Microtiter plates containing serial dilutions of each antimicrobial agent are inoculated with each organism to yield the appropriate density (10^5 CFU/ml) in a 100 μl final volume. The plates are incubated for 18-22 hours at 35° C. in ambient air.
(§2) Representative compounds were first incubated in mouse serum for an hour prior to the in vitro testing against a panel of selected gram-positive and gram-negative bacteria strains. All compounds were also pre-incubated in water for an hour prior to testing as control. Representative compounds of Formula I were incubated in human serum prior to MIC determination.

E. coli GC 2233 = experiment: MIC, broth microdilution; conditions: Escherichia coli
Experimental: as §1
Representative compounds were first incubated in mouse serum for an hour prior to the in vitro testing against a panel of selected gram-positive and gram-negative bacteria strains. All compounds were also pre-incubated in water for an hour prior to testing as control.

E. coli GC 2270 = experiment: MIC, broth microdilution; conditions: Escherichia coli
E. coli GC 4560 = experiment: MIC, broth microdilution; conditions: Escherichia coli
E. coli GC 6465 = experiment: MIC, broth microdilution; conditions: Escherichia coli
E. coli GC 1073 = experiment: MIC, broth microdilution; conditions: Escherichia coli
S. typhimurium GC 2172 = experiment: MIC, broth microdilution; conditions: Salmonella enterica, TYPHIMURIUM
S. aureus GC 6466 = experiment: MIC, broth microdilution; conditions: Staphylococcus aureus
S. aureus GC 6467 = experiment: MIC, broth microdilution; conditions: Staphylococcus aureus
S. aureus GC 1079 = experiment: MIC, broth microdilution; conditions: Staphylococcus aureus
S. aureus GC 4536 = experiment: MIC, broth microdilution; conditions: Staphylococcus aureus
S. aureus GC 2216 = experiment: MIC, broth microdilution; conditions: Staphylococcus aureus
S. aureus GC 6469 = experiment: MIC, broth microdilution; conditions: Staphylococcus aureus
E. faecalis GC 2242 = experiment: MIC, broth microdilution; conditions: Enterococcus faecalis
Experimental: as §1, §2

E. faecium GC 4556 = experiment: MIC, broth microdilution; conditions: Enterococcus faecium
Experimental: as §1, §2

E. faecium GC 2243 = experiment: MIC, broth microdilution; conditions: Enterococcus faecium
c. albicans GC 3066 = experiment: MIC, broth microdilution
E. coli = experiment: Range of MIC for E. coli strains; conditions: Escherichia coli
Staph. = experiment: Range of MIC for Staph. strains, including MRSA; conditions: Staphylococcus aureus, MRSA

Compound: CCCN(CC(=O)Nc1cc(N(C)C)c2c(c1O)C(=O)C1=C(O)[C@]3(O)C(=O)C(C(N)=O)=C(O)[C@@H](N(C)C)[C@@H]3C[C@@H]1C2)C(=O)OCOC(=O)c1cc(C)cc(C)c1 [Example 26, ({[(2-{[(5aR,6aS,7S,10aS)-9-(aminocarbonyl)-4,7-bis(dimethylamino)-1,8,10a,11-tetrahydroxy-10,12-dioxo-5,5a,6,6a,7,10,10a,12-octahydrotetracen-2-yl]amino}-2-oxoethyl)(propyl)amino]carbonyl}oxy)methyl 3,5-dimethylbenzoate]
- MIC (E. coli GC 2231; GC2231, read-out: MINIMAL INHIBITORY CONCENTRATION MIC, pre-incubated in Mouse Serum): 4 µg/mL (≈ 5.14 µM)
- MIC (E. coli GC 2231; GC2231, read-out: MINIMAL INHIBITORY CONCENTRATION MIC, pre-incubated in Water): > 64 µg/mL
- MIC (E. coli GC 2235; GC2235, read-out: MINIMAL INHIBITORY CONCENTRATION MIC, pre-incubated in Mouse Serum): 1 µg/mL (≈ 1.29 µM)
- MIC (E. coli GC 2235; GC2235, read-out: MINIMAL INHIBITORY CONCENTRATION MIC, pre-incubated in Water): 64 µg/mL (≈ 82.3 µM)
- MIC (E. coli GC 2233; GC2233, read-out: MINIMAL INHIBITORY CONCENTRATION MIC, pre-incubated in Mouse Serum): 2 µg/mL (≈ 2.57 µM)
- MIC (E. coli GC 2233; GC2233, read-out: MINIMAL INHIBITORY CONCENTRATION MIC, pre-incubated in Water): > 64 µg/mL
- MIC (E. coli GC 2270; GC2270, read-out: MINIMAL INHIBITORY CONCENTRATION MIC, pre-incubated in Mouse Serum): 1 µg/mL (≈ 1.29 µM)
- MIC (E. coli GC 2270; GC2270, read-out: MINIMAL INHIBITORY CONCENTRATION MIC, pre-incubated in Water): > 64 µg/mL
- MIC (E. coli GC 4560; GC4560, read-out: MINIMAL INHIBITORY CONCENTRATION MIC, pre-incubated in Mouse Serum): 0.5 µg/mL (≈ 0.643 µM)
- MIC (E. coli GC 4560; GC4560, read-out: MINIMAL INHIBITORY CONCENTRATION MIC, pre-incubated in Water): 8 µg/mL (≈ 10.3 µM)
- MIC (E. coli GC 6465; GC6465, read-out: MINIMAL INHIBITORY CONCENTRATION MIC, pre-incubated in Mouse Serum): 8 µg/mL (≈ 10.3 µM)
- MIC (E. coli GC 6465; GC6465, read-out: MINIMAL INHIBITORY CONCENTRATION MIC, pre-incubated in Water): > 64 µg/mL
- MIC (E. coli GC 1073; GC1073, read-out: MINIMAL INHIBITORY CONCENTRATION MIC, pre-incubated in Mouse Serum): 2 µg/mL (≈ 2.57 µM)
- MIC (E. coli GC 1073; GC1073, read-out: MINIMAL INHIBITORY CONCENTRATION MIC, pre-incubated in Water): > 64 µg/mL
- MIC (S. typhimurium GC 2172; read-out: MINIMAL INHIBITORY CONCENTRATION MIC, pre-incubated in Mouse Serum): 16 µg/mL (≈ 20.6 µM)
- MIC (S. typhimurium GC 2172; read-out: MINIMAL INHIBITORY CONCENTRATION MIC, pre-incubated in Water): > 64 µg/mL
- MIC (S. aureus GC 6466; GC6466, read-out: MINIMAL INHIBITORY CONCENTRATION MIC, pre-incubated in Mouse Serum): 0.25 µg/mL (≈ 0.321 µM)
- MIC (S. aureus GC 6466; GC6466, read-out: MINIMAL INHIBITORY CONCENTRATION MIC, pre-incubated in Water): 0.25 µg/mL (≈ 0.321 µM)
- MIC (S. aureus GC 6467; GC6467, read-out: MINIMAL INHIBITORY CONCENTRATION MIC, pre-incubated in Mouse Serum): 1 µg/mL (≈ 1.29 µM)
- MIC (S. aureus GC 6467; GC6467, read-out: MINIMAL INHIBITORY CONCENTRATION MIC, pre-incubated in Water): 4 µg/mL (≈ 5.14 µM)
- MIC (S. aureus GC 1079; GC1079, read-out: MINIMAL INHIBITORY CONCENTRATION MIC, pre-incubated in Mouse Serum): 1 µg/mL (≈ 1.29 µM)
- MIC (S. aureus GC 1079; GC1079, read-out: MINIMAL INHIBITORY CONCENTRATION MIC, pre-incubated in Water): 2 µg/mL (≈ 2.57 µM)
- MIC (S. aureus GC 4536; GC4536, read-out: MINIMAL INHIBITORY CONCENTRATION MIC, pre-incubated in Mouse Serum): 0.25 µg/mL (≈ 0.321 µM)
- MIC (S. aureus GC 4536; GC4536, read-out: MINIMAL INHIBITORY CONCENTRATION MIC, pre-incubated in Water): 0.5 µg/mL (≈ 0.643 µM)
- MIC (S. aureus GC 2216; GC2216, read-out: MINIMAL INHIBITORY CONCENTRATION MIC, pre-incubated in Mouse Serum): 0.5 µg/mL (≈ 0.643 µM)
- MIC (S. aureus GC 2216; GC2216, read-out: MINIMAL INHIBITORY CONCENTRATION MIC, pre-incubated in Water): 0.5 µg/mL (≈ 0.643 µM)
- MIC (S. aureus GC 6469; GC6469, read-out: MINIMAL INHIBITORY CONCENTRATION MIC, pre-incubated in Mouse Serum): 1 µg/mL (≈ 1.29 µM)
- MIC (S. aureus GC 6469; GC6469, read-out: MINIMAL INHIBITORY CONCENTRATION MIC, pre-incubated in Water): 2 µg/mL (≈ 2.57 µM)
- MIC (E. faecalis GC 2242; GC2242, read-out: MINIMAL INHIBITORY CONCENTRATION MIC, pre-incubated in Mouse Serum): 2 µg/mL (≈ 2.57 µM)
- MIC (E. faecalis GC 2242; GC2242, read-out: MINIMAL INHIBITORY CONCENTRATION MIC, pre-incubated in Water): 4 µg/mL (≈ 5.14 µM)
- MIC (E. faecium GC 4556; GC4556, read-out: MINIMAL INHIBITORY CONCENTRATION MIC, pre-incubated in Mouse Serum): 1 µg/mL (≈ 1.29 µM)
- MIC (E. faecium GC 4556; GC4556, read-out: MINIMAL INHIBITORY CONCENTRATION MIC, pre-incubated in Water): 4 µg/mL (≈ 5.14 µM)
- MIC (E. faecium GC 2243; GC2243, read-out: MINIMAL INHIBITORY CONCENTRATION MIC, pre-incubated in Mouse Serum): 1 µg/mL (≈ 1.29 µM)
- MIC (E. faecium GC 2243; GC2243, read-out: MINIMAL INHIBITORY CONCENTRATION MIC, pre-incubated in Water): 2 µg/mL (≈ 2.57 µM)
- MIC (c. albicans GC 3066; Candida albicans, GC3066, read-out: MINIMAL INHIBITORY CONCENTRATION MIC): > 64 µg/mL
- MINIMAL INHIBITORY CONCENTRATION MIC (c. albicans GC 3066; pre-incubated in Water): >64 UG/ML
- MIC (E. coli; 20 h, read-out: Range of MIC, E. coli (Mouse Serum)): 1 to 4 µg/mL (≈ 1.29 to 5.14 µM)
- MIC (E. coli; read-out: Range of MIC, E. coli (mouse serum)): 1 to 4 µg/mL (≈ 1.29 to 5.14 µM)
- MIC (Staph.; read-out: Range of MIC, Staph (Mouse Serum)): 0.25 to 1 µg/mL (≈ 0.321 to 1.29 µM)
- MIC (Staph.; read-out: Range of MIC, Staph (Water)): 0.25 to 4 µg/mL (≈ 0.321 to 5.14 µM)
- MIC (Staph.; read-out: Range of MIC, Staph. (mouse serum)): 0.25 to 1 µg/mL (≈ 0.321 to 1.29 µM)
- MIC (Staph.; read-out: Range of MIC, Staph. (water)): 0.25 to 4 µg/mL (≈ 0.321 to 5.14 µM)
